How the values were obtained:
ALAS1 = assay: Western blot analysis of ALAS1 expression in SKCO1 cells; assay type: cell-based, human; conditions: 5 mM ALA for 16, 24 and 48 hours vs untreated
Method: (A) Heme content in SHSY5Y cells non-treated (NT) or treated with 5 mM ALA for 15 hours. Values are expressed as pmol heme/mg protein. Data represent mean±SEM, n=3; *=P<0.05. (B, C) qRT-PCR analysis of the expression of ALAS1 (B) and FLVCR1a (C) in SHSY5Y cells non-treated (NT) or treated with 5 mM ALA for 15 hours. Transcript abundance, normalized to beta-actin mRNA expression, is expressed as a fold increase over a calibrator sample. Data represent mean±SEM, n=4. For statistical analyses, an unpaired Student's t-test was used; *p<0.05. (D) qRT-PCR analysis of the expression of ALAS1 in SKCO1 cells untreated (NT) or treated with 5 mM ALA for 24 hours. Transcript abundance, normalized to beta-actin mRNA expression, is expressed as a fold increase over a calibrator sample. Data represent mean±SEM, n=5. […] Band intensities were measured by densitometry and normalized to beta-actin expression. […] (F) Proliferation of SHSY5Y cells assessed by crystal violet staining at different time points (starting from the day after plating, named “day 0”). Treatment with 5 mM ALA occurred at “day 0” and cells were monitored until the end of the experiment without medium refresh. […] (G) SKCO1 cells viability measured by the CellTiter-Fluor Cell Viability Assay (Promega, Madison, WI USA, catalog n°G6080) at different time points, starting from the day after plating (named “day 0”), as a readout of cell proliferation. […]

C80 cells = assay: TCA cycle flux in C80 cells; assay type: cell-based, human; conditions: FLVCR1a-silenced vs scramble shRNA C80 cells
Description: TCA cycle flux is reported in the centre of the figure and expressed as pmol CO2/h/mg protein. Data represent mean±SEM, n=3. For statistical analyses, an unpaired Student's t-test was used. **=p<0.01. Moreover, TCA cycle enzymes activities are reported in boxes and expressed as mU/mg mitochondrial proteins. Data represent mean±SEM, n=3. For statistical analyses, an unpaired Student's t-test was used; *=p<0.05, ***=p<0.001. […] Results are expressed as pmol CO2/h/mg protein. Data represent mean±SEM, n=3. For statistical analyses, an unpaired Student's t-test was used; *=p<0.05, **=p<0.01.
The glucose flux through TCA cycle was measured by radiolabeling cells with 2 μCi/ml [6-^14C]-glucose (55 mCi/mmol; PerkinElmer, Waltham, MA, USA, catalog n° NEC045X). Cell suspensions were incubated for 1 hour in a closed experimental system to trap the ^14CO2 developed from [^14C]-glucose. The reaction was stopped by injecting 0.5 ml of 0.8N HClO4. The amount of glucose transformed into CO2 through the TCA cycle was calculated as described (Riganti et al., 2004) and expressed as pmoles CO2/h/mg cell proteins.

Compound | ALAS1 protein levels (ALAS1) | TCA cycle flux (C80 cells)
Cl.NCC(=O)CCC(=O)O [5-ALA, 5-Aminolevulinic acid hydrochloride] | decreased | –
FLVCR1a shRNA: shRNA specifically down-regulating FLVCR1a without targeting FLVCR1b; pLKO.1 lentiviral clone TRCN0000059599, antisense SEQ ID No.: 2 (antisense TTGCTAATGATGCTGTACTGG; sense CCAGTACAGCATCATTAGCAA) | – | Increased TCA cycle flux
